Patent US7125955B2, “NIMA interacting proteins” (The Salk Institute for Biological Studies, priority 1995, dated 2006)

Biological target: T1, Pin1 (Homo sapiens, UniProt Q13526)
T1 construct: PTPI-PIN1 directs the synthesis of the native full length Pin1 protein; (His)6 (N); made in house; host or cells: E. coli BL21
Assay: PPIase assay: inhibition of Pin1 PPIase activity
Type: biochemical
Conditions: even at 25 μM
Method: PPIase activity of the purified recombinant proteins was assayed using the procedure of Heitman et al. (Methods, 5:176, 1993) with the following exceptions. The reaction was carried out 5° C. and chymotrypsin was added just before the peptide substrate (N-Succ-Ala-Pro-Phe-p-nitroanilide, Sigma). The cis to trans isomerization was monitored every 6 seconds by a change in the absorbance at 395 nm using DMS 2000 UV and Visible Spectrophotometer (Varian). FKBP, cyclosporin A and FK520, a FK506 derivative, were gifts of D. Schultz and C. Zuker; University of California, San Diego.
Because of the strong sequence in similarity between Pin1 and the third PPIase family, Pin was tested to determine if Pin could catalyze the cis/trans isomerization of peptidyl-prolyl peptide bonds in vitro, a characteristic of PPIase. Pin1 was expressed in bacteria with an N-terminal (His)6 tag and was purified from bacteria using a […] agarose column. […] The isomerase activity was measured as described in Example 1. The cis to trans isomerization was monitored every 6 seconds by a change in the absorbance at 395 nm, with the finally stable absorbance of each sample being set at 1.0. Different concentrations of Pin1 were used as indicated, with the recombinant FK506-binding protein (FKBP) PPIase being used as a positive control. The control sample contained all the ingredients except the PPIase. […]

T1 sequence (Q13526 whole entry): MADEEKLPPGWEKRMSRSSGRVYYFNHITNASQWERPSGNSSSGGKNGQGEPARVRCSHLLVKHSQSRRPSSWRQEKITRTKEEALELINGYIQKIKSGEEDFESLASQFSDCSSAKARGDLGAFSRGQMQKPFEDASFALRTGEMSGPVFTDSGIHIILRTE

CC[C@@H]1/C=C(\C)C[C@H](C)C[C@H](OC)[C@H]2O[C@@](O)(C(=O)C(=O)N3CCCC[C@H]3C(=O)O[C@H](/C(C)=C/[C@@H]3CC[C@@H](O)[C@H](OC)C3)[C@H](C)[C@@H](O)CC1=O)[C@H](C)C[C@@H]2OC [FK520]
inhibition of the PPIase activity of Pin1: not inhibited
